Data as given in ChEMBL document CHEMBL2440076, “New triarylpyrazoles as broad-spectrum anticancer agents: design, synthesis, and biological evaluation” (Eur J Med Chem, 2013).

Experiments:
Type in all cases: functional
[1] = system: SF-295; assay: Growth inhibition of human SF295 cells assessed as cell growth at 3X10'-7 M after 48 hrs by sulforhodamine B assay; details: SF-295, 48 h, read-out: Activity
[2] = system: BT-549; assay: Growth inhibition of human BT549 cells assessed as cell growth at 3X10'-8 M after 48 hrs by sulforhodamine B assay; details: BT-549, 48 h, read-out: Activity
[3] = system: DU-145; assay: Growth inhibition of human DU145 cells assessed as cell growth at 3X10'-8 M after 48 hrs by sulforhodamine B assay; details: DU-145, 48 h, read-out: Activity
[4] = system: 786-0; assay: Growth inhibition of human 786-0 cells assessed as cell growth at 3X10'-8 M after 48 hrs by sulforhodamine B assay; details: 786-0, 48 h, read-out: Activity
[5] = system: DU-145; assay: Growth inhibition of human DU145 cells assessed as cell growth at 3X10'-5 M after 48 hrs by sulforhodamine B assay; details: DU-145, 48 h, read-out: Activity
[6] = system: CCRF-CEM; assay: Growth inhibition of human CCRF-CEM cells assessed as cell growth at 3X10'-9 M after 48 hrs by sulforhodamine B assay; details: read-out: Activity
[7] = system: OVCAR-3; assay: Growth inhibition of human OVCAR3 cells assessed as cell growth at 3X10'-8 M after 48 hrs by sulforhodamine B assay; details: OVCAR-3, 48 h, read-out: Activity
[8] = system: SK-MEL-28; assay: Growth inhibition of human SK-MEL-28 cells assessed as cell growth at 3X10'-8 M after 48 hrs by sulforhodamine B assay; details: SK-MEL-28, 48 h, read-out: Activity
[9] = system: SF-539; assay: Growth inhibition of human SF539 cells assessed as cell growth at 3X10'-8 M after 48 hrs by sulforhodamine B assay; details: SF-539, 48 h, read-out: Activity
[10] = system: NCI-H23; assay: Growth inhibition of human NCI-H23 cells assessed as cell growth at 3X10'-8 M after 48 hrs by sulforhodamine B assay; details: NCI-H23, 48 h, read-out: Activity
[11] = system: SR; assay: Growth inhibition of human SR cells assessed as cell growth at 3X10'-8 M after 48 hrs by sulforhodamine B assay; details: read-out: Activity
[12] = system: MDA-MB-468; assay: Growth inhibition of human MDA-MB-468 cells assessed as cell growth at 3X10'-9 M after 48 hrs by sulforhodamine B assay; details: MDA-MB-468, 48 h, read-out: Activity
[13] = system: OVCAR-5; assay: Growth inhibition of human OVCAR5 cells assessed as cell growth at 3X10'-5 M after 48 hrs by sulforhodamine B assay; details: OVCAR-5, 48 h, read-out: Activity
[14] = system: CAKI-1; assay: Growth inhibition of human CAKI-1 cells assessed as cell growth at 3X10'-9 M after 48 hrs by sulforhodamine B assay; details: CAKI-1, 48 h, read-out: Activity
[15] = system: OVCAR-3; assay: Growth inhibition of human OVCAR3 cells assessed as cell growth at 3X10'-5 M after 48 hrs by sulforhodamine B assay; details: OVCAR-3, 48 h, read-out: Activity
[16] = system: IGROV-1; assay: Growth inhibition of human IGROV1 cells assessed as cell growth at 3X10'-5 M after 48 hrs by sulforhodamine B assay; details: IGROV-1, 48 h, read-out: Activity
[17] = system: M14; assay: Growth inhibition of human M14 cells assessed as cell growth at 3X10'-5 M after 48 hrs by sulforhodamine B assay; details: M14, 48 h, read-out: Activity
[18] = system: A549; assay: Growth inhibition of human A549/ATCC cells assessed as cell growth at 3X10'-5 M after 48 hrs by sulforhodamine B assay; details: A549, 48 h, read-out: Activity
[19] = system: PC-3; assay: Growth inhibition of human PC3 cells assessed as cell growth at 3X10'-6 M after 48 hrs by sulforhodamine B assay; details: PC-3, 48 h, read-out: Activity
[20] = system: SF-268; assay: Growth inhibition of human SF268 cells assessed as cell growth at 3X10'-9 M after 48 hrs by sulforhodamine B assay; details: SF-268, 48 h, read-out: Activity
[21] = system: NCI-H460; assay: Growth inhibition of human NCI-H460 cells assessed as cell growth at 3X10'-9 M after 48 hrs by sulforhodamine B assay; details: NCI-H460, 48 h, read-out: Activity
[22] = system: CAKI-1; assay: Growth inhibition of human CAKI-1 cells assessed as cell growth at 3X10'-6 M after 48 hrs by sulforhodamine B assay; details: CAKI-1, 48 h, read-out: Activity
[23] = system: SK-OV-3; assay: Growth inhibition of human SKOV3 cells assessed as cell growth at 3X10'-6 M after 48 hrs by sulforhodamine B assay; details: SK-OV-3, 48 h, read-out: Activity
[24] = system: SK-MEL-28; assay: Growth inhibition of human SK-MEL-28 cells assessed as cell growth at 3X10'-6 M after 48 hrs by sulforhodamine B assay; details: SK-MEL-28, 48 h, read-out: Activity
[25] = system: MDA-MB-435; assay: Growth inhibition of human MDA-MB-435 cells assessed as cell growth at 3X10'-6 M after 48 hrs by sulforhodamine B assay; details: MDA-MB-435, 48 h, read-out: Activity
[26] = system: NCI-H522; assay: Growth inhibition of human NCI-H522 cells assessed as cell growth at 3X10'-6 M after 48 hrs by sulforhodamine B assay; details: NCI-H522, 48 h, read-out: Activity
[27] = system: NCI-H226; assay: Growth inhibition of human NCI-H226 cells assessed as cell growth at 3X10'-6 M after 48 hrs by sulforhodamine B assay; details: NCI-H226, 48 h, read-out: Activity
[28] = system: A549; assay: Growth inhibition of human A549/ATCC cells assessed as cell growth at 3X10'-6 M after 48 hrs by sulforhodamine B assay; details: A549, 48 h, read-out: Activity
[29] = system: SR; assay: Growth inhibition of human SR cells assessed as cell growth at 3X10'-6 M after 48 hrs by sulforhodamine B assay; details: read-out: Activity
[30] = system: RPMI-8226; assay: Growth inhibition of human RPMI8226 cells assessed as cell growth at 3X10'-6 M after 48 hrs by sulforhodamine B assay; details: RPMI-8226, 48 h, read-out: Activity
[31] = system: MOLT-4; assay: Growth inhibition of human MOLT4 cells assessed as cell growth at 3X10'-6 M after 48 hrs by sulforhodamine B assay; details: MOLT-4, 48 h, read-out: Activity
[32] = Growth inhibition of human Hs 578T cells assessed as cell growth at 3X10'-7 M after 48 hrs by sulforhodamine B assay; details: read-out: Activity
[33] = system: MDA-MB-231; assay: Growth inhibition of human MDA-MB-231 cells assessed as cell growth at 3X10'-7 M after 48 hrs by sulforhodamine B assay; details: MDA-MB-231, 48 h, read-out: Activity
[34] = system: SN12C; assay: Growth inhibition of human SN12C cells assessed as cell growth at 3X10'-7 M after 48 hrs by sulforhodamine B assay; details: read-out: Activity
[35] = system: DU-145; assay: Growth inhibition of human DU145 cells assessed as cell growth at 5X10'-6 M after 48 hrs by sulforhodamine B assay; details: DU-145, 48 h, read-out: Activity
[36] = system: NCI-H460; assay: Growth inhibition of human NCI-H460 cells assessed as cell growth at 5X10'-8 M after 48 hrs by sulforhodamine B assay; details: NCI-H460, 48 h, read-out: Activity

## COc1cc(-c2nn(-c3cccc(NC(=O)c4ccc(Cl)c(C(F)(F)F)c4)c3)cc2-c2ccncc2)ccc1Cl
[1]
  growth at 0.3 µM: 90%
[2]
  growth at 0.03 µM: 96%
[3]
  growth at 0.03 µM: 100%
[4]
  growth at 0.03 µM: 96%
[5]
  growth at 30 µM: 10%
[6]
  growth at 0.003 µM: 96%
[7]
  growth at 0.03 µM: 104%
[8]
  growth at 0.03 µM: 100%
[9]
  growth at 0.03 µM: 102%
[10]
  growth at 0.03 µM: 92%
[11]
  growth at 0.03 µM: 98%
[12]
  growth at 0.003 µM: 89%
[13]
  growth at 30 µM: 68%
[14]
  growth at 0.003 µM: 93%
[15]
  growth at 30 µM: -12%
[16]
  growth at 30 µM: 8%
[17]
  growth at 30 µM: 19%
[18]
  growth at 30 µM: 16%
[19]
  growth at 3 µM: 31%
[20]
  growth at 0.003 µM: 94%
[21]
  growth at 0.003 µM: 103%
[22]
  growth at 3 µM: 44%
[23]
  growth at 3 µM: 71%
[24]
  growth at 3 µM: 49%
[25]
  growth at 3 µM: -32%
[26]
  growth at 3 µM: 12%
[27]
  growth at 3 µM: 59%
[28]
  growth at 3 µM: 44%
[29]
  growth at 3 µM: 5%
[30]
  growth at 3 µM: 31%
[31]
  growth at 3 µM: 57%
[32]
  growth at 0.3 µM: 82%
[33]
  growth at 0.3 µM: 81%
[34]
  growth at 0.3 µM: 93%

## O=C(Nc1cccc(-n2cc(-c3ccncc3)c(-c3ccc(Cl)c(O)c3)n2)c1)Nc1ccc(Cl)c(Cl)c1
[2]
  growth at 0.03 µM: 102%
[3]
  growth at 0.03 µM: 100%
[4]
  growth at 0.03 µM: 96%
[5]
  growth at 30 µM: 9%
[6]
  growth at 0.003 µM: 91%
[7]
  growth at 0.03 µM: 100%
[8]
  growth at 0.03 µM: 102%
[9]
  growth at 0.03 µM: 95%
[10]
  growth at 0.03 µM: 93%
[11]
  growth at 0.03 µM: 98%
[12]
  growth at 0.003 µM: 90%
[13]
  growth at 30 µM: 1%
[14]
  growth at 0.003 µM: 93%
[15]
  growth at 30 µM: -37%
[16]
  growth at 30 µM: 5%
[17]
  growth at 30 µM: -28%
[18]
  growth at 30 µM: 8%
[19]
  growth at 3 µM: 6%
[20]
  growth at 0.003 µM: 93%
[21]
  growth at 0.003 µM: 108%
[22]
  growth at 3 µM: 17%
[23]
  growth at 3 µM: 13%
[24]
  growth at 3 µM: 25%
[25]
  growth at 3 µM: 14%
[26]
  growth at 3 µM: 14%
[27]
  growth at 3 µM: 28%
[28]
  growth at 3 µM: 14%
[29]
  growth at 3 µM: 11%
[30]
  growth at 3 µM: 10%
[31]
  growth at 3 µM: 19%
[32]
  growth at 0.3 µM: 82%
[33]
  growth at 0.3 µM: 94%
[34]
  growth at 0.3 µM: 101%

## O=C(Nc1cccc(-n2cc(-c3ccncc3)c(-c3ccc(Cl)c(O)c3)n2)c1)Nc1ccc(Cl)c(C(F)(F)F)c1
[1]
  growth at 0.3 µM: 90%
[2]
  growth at 0.03 µM: 106%
[3]
  growth at 0.03 µM: 105%
[4]
  growth at 0.03 µM: 102%
[5]
  growth at 30 µM: -58%
[6]
  growth at 0.003 µM: 98%
[7]
  growth at 0.03 µM: 113%
[8]
  growth at 0.03 µM: 97%
[9]
  growth at 0.03 µM: 94%
[10]
  growth at 0.03 µM: 100%
[11]
  growth at 0.03 µM: 104%
[12]
  growth at 0.003 µM: 89%
[13]
  growth at 30 µM: -14%
[14]
  growth at 0.003 µM: 89%
[15]
  growth at 30 µM: -16%
[16]
  growth at 30 µM: -47%
[17]
  growth at 30 µM: -39%
[18]
  growth at 30 µM: -29%
[19]
  growth at 3 µM: -15%
[20]
  growth at 0.003 µM: 101%
[21]
  growth at 0.003 µM: 103%
[22]
  growth at 3 µM: -9%
[23]
  growth at 3 µM: 22%
[24]
  growth at 3 µM: 1%
[25]
  growth at 3 µM: -31%
[26]
  growth at 3 µM: -11%
[27]
  growth at 3 µM: 30%
[28]
  growth at 3 µM: 7%
[29]
  growth at 3 µM: -10%
[30]
  growth at 3 µM: -20%
[31]
  growth at 3 µM: -4%
[32]
  growth at 0.3 µM: 76%
[33]
  growth at 0.3 µM: 69%
[34]
  growth at 0.3 µM: 91%

## O=C(Nc1cccc(-n2cc(-c3ccncc3)c(-c3ccc(Cl)c(O)c3)n2)c1)Nc1cc(C(F)(F)F)cc(C(F)(F)F)c1
[35]
  growth at 5 µM: 5%
[36]
  growth at 0.05 µM: 101%

## O=C(Nc1cccc(-n2cc(-c3ccncc3)c(-c3ccc(Cl)c(O)c3)n2)c1)c1ccc(N2CCOCC2)c(C(F)(F)F)c1
[35]
  growth at 5 µM: 46%
